Data set [1] concerns Wistar rats with spinal cord injury. As to the kind of experiment: Spinal cord injury model (20 g compression on lower thoracic cord for 20 minutes). In kind it is in vivo, rat. From the text: The present inventors have investigated the effects of repetitive or continuous intravenous administration of ginsenoside Rb1 using rats with spinal cord injury and the effects were compared with those of repetitive or continuous intravenous administration of a crude saponin fraction of medicinal ginseng. If pressure is loaded on certain spinal segments such as the lower thoracic cord, not only nerve cells (neurons) in the gray matter of the same region but also fiber tracts or pathways in the white matter of the same region are damaged. The damages to the fiber tracts or pathways of the white matter are further developed to the distal portions (caudal portions) as well as causing the secondary degeneration of the origins of the fiber tract or pathways, namely the upper nerve cell bodies (i.e. origins) which project fibers (nerve processes) to the fiber tracts or pathways. As a result, the damages to the fiber tracts or pathways of the white matter in the lower thoracic cord, which received compression loading, induce the secondary degeneration of the origins (nerve cell bodies) sending fibers (also termed nerve processes or axons) to the fiber tracts or pathways as well as the secondary degeneration of fiber tracts located distal to the lower thoracic cord (i.e. lumbar cord and sacral cord) to cause paraplegia of both limbs. Further, since the innervation from the brain regions proximal to the lumbar cord and sacral cord is cut off due to damage to the lower thoracic cord, the secondary degeneration of nerve cells in the gray matters of the lumbar cord and sacral cord is further induced, as a result, paraplegia of the limbs can not be recovered. For that model of the spinal cord injury, the present inventors have used male Wistar rats (body weight about 300 g) loaded with 20 g of compression on the lower thoracic cord for 20 minutes.
Under inhalation anesthesia by a mixture of nitrous oxide and halothane, the rats were loaded with 20 g of compression on the lower thoracic cord for 20 minutes. After more than 30 minutes passed, ginsenoside Rb1 dissolved in physiological saline was injected once into the left femoral vein (12 μg or 60 μg), thereafter continuous or repetitive intravenous administration of ginsenoside Rb1 was performed for 7 days by using an Alza osmotic minipump (12 μg/day or 60 μ/day). Control animals and sham-operated animals were administered with the same amount of physiological saline (vehicle) alone. The open field locomotor scores [Basso, Bettie and Bresnakan (BBB) scores] were measured in each animal before loading spinal cord injury, on the day of spinal cord injury and from 1st day to 7th day after the spinal cord injury for use as an index of motor functions (Basso D. M. et al., J. Neurotrauma, 13, 343-359, 1996). BBB scores of the sham-operated rats (normal rats) were 20-21.
Under inhalation anesthesia by a mixture of nitrous oxide and halothane, the rats were loaded with 20 g of compression on the lower thoracic cord for 20 minutes. More than 30 minutes later, the crude saponin fraction dissolved in physiological saline was infused once into the left femoral vein (870 μg), thereafter continuous intravenous administration of the crude saponin fraction was performed for 7 days by using an Alza osmotic minipump (870 μg/day). Control animals with spinal cord injuries were administered with the same amount of physiological saline (vehicle) alone. […] These figures are photographs in place of drawings.
Under inhalation anesthesia by a mixture of nitrous oxide and halothane, wistar rats (body weight about 300 g) were loaded with 20 g of compression on the lower thoracic cord for 20 minutes. After they were awakened from anesthesia, the rats with paraplegia in both hindlimbs were allowed to stay for 1 hour and 40 minutes in the cage. […]

For a further data set, the system named is Bcl-xL mRNA. As to the kind of experiment: RT-PCR of Bcl-xL mRNA in cerebral cortex after intravenous ginsenoside Rb1. The format is in vivo, rat. Conditions: intravenous 60 μg/day; 4th and 6th hour after MCA permanent occlusion; vs sham and saline. The protocol:
The present inventors investigated whether or not intravenous administration of low doses of ginsenoside Rb1 increases expression of Bcl-xL mRNA in brain tissues. For this purpose, for example, SH-SP rats (body weight 250-300 g), at the age of 12 weeks, were used. Immediately after permanent occlusion of the MCA in SH-SP rats under inhalation anesthesia, ginsenoside Rb1 dissolved in physiological saline was infused once intravenously (60 μg), and subsequently ginsenoside Rb1 was intravenously infused continuously at the dose of 60 μg/day. Control animals with MCA permanent occlusion and sham-operated animals received the same amount of physiological saline after MCA permanent occlusion.
Group 2 consists of animals with the same experimental conditions. Sham indicates sham-operated animals; Rb1(−) indicates animals with cerebral infarction administered with physiological saline; and Rb1(+) indicates animals with cerebral infarction administered intravenously with ginsenoside Rb1. At the 4th hour or the 6th hour after the sham operation and MCA permanent occlusion, animals were anesthetized with chloral hydrate, and the left cerebral cortex (i.e. the cerebral cortex on the side of MCA permanent occlusion) was dissected out and total RNA was prepared for RT-PCR. The mRNA of β-actin was used as the internal standard. […]

Data set [2] is described as follows: Observation of animals for ill or adverse effects. The format is in vivo. Particulars: present experiments.
Data set [3] concerns SH-SP rats with MCA permanent occlusion. Conditions: cited from earlier work.
Data set [4] concerns rats with ischemia/reperfusion or permanent occlusion of the middle cerebral artery. Conditions: cited from earlier work.
For a further data set, the system named is cultured nerve cells. Particulars: cited from earlier work.
The conditions of data set [5]: low concentrations or low doses; cited from earlier work.

Like-named read-outs stand apart in the source and are kept apart here.

On to `CC(C)=CCC[C@](C)(O[C@@H]1O[C@H](CO[C@@H]2O[C@H](CO)[C@@H](O)[C@H](O)[C@H]2O)[C@@H](O)[C@H](O)[C@H]1O)[C@H]1CC[C@]2(C)[C@@H]1[C@H](O)C[C@@H]1[C@@]3(C)CC[C@H](O[C@@H]4O[C@H](CO)[C@@H](O)[C@H](O)[C@H]4O[C@@H]4O[C@H](CO)[C@@H](O)[C@H](O)[C@H]4O)C(C)(C)[C@@H]3CC[C@]12C` [ginsenoside Rb1], for which the “healing of the operative dorsal wounds / ill effects” value in data set [1] (compared with rats administered with physiological saline) is “no such ill effects”. Also, the “motor abilities (BBB scores) at the 7th day after spinal cord injury” value in data set [1] (ginsenoside Rb1 intravenous 12 μg/day and 60 μg/day) is “significantly ameliorated in a dose-dependent manner”. Also, the “bedsore (decubitus)” value in data set [1] (ginsenoside Rb1 intravenous 60 μg/day starting 2 hours after spinal cord injury) is “hardly observed”. The “paraplegia of both hindlimbs” value in data set [1] (ginsenoside Rb1 intravenous 60 μg/day starting 2 hours after spinal cord injury, from 3-4 days after onset) was “gradually ameliorated”; in data set [1] (ginsenoside Rb1 intravenous 60 μg/day starting more than 30 minutes after compression, 1-2 days later), “significantly ameliorated”. Also, the “expressions of Bcl-xL mRNA in the cerebral cortex” value in the data set with Bcl-xL mRNA is given as “obviously increased”. Further, in data set [2], the “ill / adverse effects on careful observation of animals” value was “No adverse effect was detected”. In addition, the entries for the “ischemia-induced place navigation disability” value in data set [3] (ginsenoside Rb1 intracerebroventricular infusion immediately after permanent MCA occlusion) and in data set [3] (ginsenoside Rb1 repetitive or continuous intravenous 6 μg or 60 μg/day) were “ameliorated” and “significantly ameliorated”, respectively. Moreover, the effect on infarction result in data set [4] (intravenous 10 mg/kg before permanent occlusion of the middle cerebral artery) was “absolutely no effect”. The “reduction of size of the infarction vs control” value in data set [4] (intravenous 40 mg/kg before permanent occlusion of the middle cerebral artery) was “about 14%”. In addition, the “reduction of infarction size vs control” value in data set [4] (single intravenous 10-40 mg/kg after the reperfusion) is 12%-35%; in data set [4] (single intravenous 10-40 mg/kg before ischemia, ischemia/reperfusion model) it was 20%-49%. In addition, the “suppression of apoptosis-like nerve cell death and Bcl-xL protein expression in nerve cells” value in the data set with cultured nerve cells (1 fg/ml and 100 fg/ml (tested 1, 100 and 10^5 fg/ml)) is reported as “significant effects”. For the same molecule, the “formation of lipid peroxides” value in the data set with cultured nerve cells (100 fg/ml) is “slight suppressive action”. Besides, in the data set on cultured nerve cells (Kim et al. 1998, Liu and Zhang 1995), the “concentrations reducing neurotoxicity of glutamic acid” value is 0.11 to 11 µg/mL. In addition, the “concentration that may protect against apoptosis-like death” value in the data set on cultured nerve cells (Tanaka et al. 1998) was 500 µM. Further, the “concentrations reducing necrosis of nerve cells caused by ferrous sulfate” value with cultured nerve cells (added in advance to the culture medium) was 0.1 to 100 fg/mL. Further, the nerve cell death result in the data set with cultured nerve cells (high concentration of ginsenoside Rb1, inventors' cell culture experiments) is “did not suppress”. Also, the “metabolic activity of control cultured nerve cells” value in the data set with cultured nerve cells (not treated with SNP) is recorded as “no effect”. Further, the “concentrations enhancing expression of Bcl-xL in cultured neurons” value in the data set with cultured nerve cells (prior application) is recorded as 1˜100 fg/ml. The “extracellular concentrations protecting nerve cells injured by SNP” value in the data set on cultured nerve cells (sodium nitroprusside treatment (prior application)) is 1 to 100 fg/mL. The bleeding tendency result in data set [5] is given as “does not promote”.

Source of the values: patent US7235267B1, “Brain cell or nerve cell-protecting agents comprising medicinal ginseng” (priority 1999, dated 2007).
